Measurements reported in US20140024638A1, “TREATMENT OF COGNITIVE DYSFUNCTION IN SCHIZOPHRENIA” (TARGACEPT, INC., priority 2011, published 2014).

Key:
[1] = water solubility (salt screening); assay type: physicochemical
[2] = hygroscopicity (salt screening); assay type: physicochemical

Compound	water solubility [1]	hygroscopicity [2]
Cc1ccc(S(=O)(=O)O)cc1.O=C(N[C@@H]1C2CCN(CC2)[C@H]1Cc1cccnc1)c1cc2ccccc2o1 [p-toluenesulfonic acid salt, (2S,3R)—N-(2-((3-pyridinyl)methyl)-1-azabicyclo[2.2.2]oct-3-yl)benzofuran-2-carboxamide p-toluenesulfonate]	good	low
O=C(N[C@@H]1C2CCN(CC2)[C@H]1Cc1cccnc1)c1cc2ccccc2o1.O=P(O)(O)O [phosphoric acid salt]		low
